In brackets after ≈: the same amount, converted by molar mass.
Key:
Vero = assay: Selectivity index, IC50 against Vero cells/MIC against Mycobacterium; type: functional
[1] = test system: Mycobacterium tuberculosis; assay: Antibacterial activity against Mycobacterium tuberculosis H37Rv; type: functional

Compound	Selectivity index (Vero)	MIC99 [1]
CC(C)CCOc1ccc(NC(=S)Nc2ccc(OCC(C)C)cc2)cc1	72	0.39 µg/mL (≈ 1.01 µM)
CCCOc1ccc(NC(=S)Nc2ccc(OCCC)cc2)cc1	44	0.2 µg/mL (≈ 0.581 µM)
CCCCOc1ccc(NC(=S)Nc2ccc(OCC(C)C)cc2)cc1	79.9	0.1 µg/mL (≈ 0.268 µM)
CCCCOc1ccc(NC(=S)Nc2ccc(SCC(C)C)cc2)cc1		> 6.25 µg/mL
CC(C)CSc1ccc(NC(=S)Nc2ccc(SCC(C)C)cc2)cc1	12.4	0.78 µg/mL (≈ 1.93 µM)
CC(C)CCOc1ccc(NC(=S)Nc2ccc(OCCC(C)C)cc2)cc1 [TIOCARLIDE]	82	2 µg/mL (≈ 4.99 µM)
CCCCc1ccc(NC(=S)Nc2ccc(OCCC)cc2)cc1	100	< 0.1 µg/mL
CCCSc1ccc(NC(=S)Nc2ccc(Cc3ccccc3)cc2)cc1	5.28	1.56 µg/mL (≈ 3.97 µM)
CCCCOc1ccc(NC(=S)Nc2ccc(OCCC(C)C)cc2)cc1	89	< 0.1 µg/mL
CC(C)CCOc1ccc(NC(=S)Nc2ccc(Cc3ccccc3)cc2)cc1	48	0.2 µg/mL (≈ 0.494 µM)
CCCCOc1ccc(NC(=S)Nc2ccc(CCCC)cc2)cc1	87	< 0.1 µg/mL
CCCCOc1ccc(NC(=S)Nc2ccc(Cc3ccccc3)cc2)cc1	22.1	0.39 µg/mL (≈ 0.999 µM)
CCCCOc1ccc(NC(=S)Nc2ccc(SCCC)cc2)cc1	45.5	0.2 µg/mL (≈ 0.534 µM)

— ChEMBL document CHEMBL1146913, “Symmetrical and unsymmetrical analogues of isoxyl; active agents against Mycobacterium tuberculosis” (2006)
